The text below walks through data of US5431896A, “Microbial immunoregulant” (Merck & Co., Inc., priority 1992, dated 1995).

Each structure is given as a SMILES string. Several values for one entry are separate records, joined by “and”; a condition that tells them apart may be missing. Identical values can stand only once. Entries after “also recorded” stand apart in the source; their conditions may differ. Like-named read-outs stand apart in the source and are kept apart here.

In one data set the test system is mouse T lymphocytes. Description: T-cell proliferation assay (ionomycin plus PMA induced T-cell stimulation, tritiated thymidine uptake). It counts as cell-based, C57B1/6 mice. Conditions: for immunosuppressive activity by the T-cell proliferation assay: qualitative statement. The method, then: The principle of this assay is to measure the proliferation of mouse T lymphocytes stimulated with the combination of ionomycin plus PMA. A positive sample in this assay will inhibit T-cell proliferation, as indicated by reduced tritiated thymidine uptake.
Cells were pelleted by centrifugation at 1500 rpm for 8 minutes. Contaminating red cells were removed by treating the pellet with ammonium chloride lysing buffer (GIBCO) for 2 minutes at 4° C. Cold medium was added and cells were again centrifuged at 1500 rpm for 8 minutes. T lymphocytes were then isolated by separation of the cell suspension on nylon wool columns as follows: Nylon wool columns were prepared by packing approximately 4 grams of washed and dried nylon wool into 20 ml plastic syringes. The columns were sterilized by autoclaving at 250° F. for 30 minutes. Nylon wool columns were wetted with warm (37° C.) culture medium and rinsed with the same medium. Washed spleen cells resuspended in warm medium were slowly applied to the nylon wool. The columns were then incubated in an upright position at 37° C. for 1 hour. Non-adherent T lymphocytes were eluted from the columns with warm culture medium and the cell suspensions were spun as above.
The cell suspension was immediately distributed into 96 well flat-bottom microculture plates (Costar) at 200 μl/well. […] The proliferation of T lymphocytes was assessed by measurement of tritiated thymidine incorporation. After 44 hours of culturing, the cells were pulse-labelled with 2 μCi/well of tritiated thymidine (NEN, Cambridge, Mass.). After another 4 hours of incubation, cultures were harvested on glass fiber filters using a multiple sample harvester. Radioactivity of filter discs corresponding to individual wells was measured by standard liquid scintillation counting methods (Betacounter). Mean counts per minute of replicate wells were calculated and the results expressed as percent inhibition of tritiated thymidine uptake (proliferation) as follows: [formula]

For data set [1] the following is noted: reputed; EPO Publication No. 0184162; cited from earlier work.
The next data set is described as follows: Solubility. In kind it is physicochemical. Conditions: methanol.

On to `C=CC[C@@H]1/C=C(\C)C[C@H](C)C[C@H](OC)[C@H]2O[C@@](O)(C(=O)C(=O)N3CCCC[C@H]3C(=O)O[C@H](/C(C)=C/[C@@H]3CC[C@@H](O)[C@H](OC)C3)[C@H](C)[C@@H](O)CC1=O)[C@H](C)C[C@@H]2OC` [FK-506, reference compound], for which the inhibition at 0.01 µg/mL in the data set with mouse T lymphocytes (Mus musculus, T-lymphocyte, 48 h, read-out: inhibition of T-cell proliferation by standard) was found to be 99%. For the same compound, the “potency relative to cyclosporin” value in data set [1] is 100 times.
On to `CO[C@H]1C[C@@H](C)C/C(C)=C/[C@@H](C)C(=O)C[C@H](O)[C@@H](C)[C@@H](/C(C)=C/[C@@H]2CC[C@@H](O)[C@H](O)C2)OC(=O)[C@@H]2CCCCN2C(=O)C(=O)[C@]2(O)O[C@H]1[C@@H](OC)C[C@H]2C` [L-687,819], for which the IC50 with mouse T lymphocytes (Mus musculus, T-lymphocyte, 48 h, read-out: IC50 (inhibition of T-cell proliferation)) was 0.007 µg/mL and 9.17 nM. In the data set with mouse T lymphocytes (Mus musculus, T-lymphocyte, L-687,819 0.11 ng/ml, 48 h), the inhibition at 0.00011 µg/mL was determined as 9.5%. The inhibition at 0.00026 µg/mL in the data set with mouse T lymphocytes (Mus musculus, T-lymphocyte, L-687,819 0.26 ng/ml, 48 h) was found to be 9.1%. Besides, in the data set on mouse T lymphocytes (Mus musculus, T-lymphocyte, L-687,819 0.58 ng/ml, 48 h), the inhibition at 0.00058 µg/mL amounted to 0%. Besides, in the data set on mouse T lymphocytes (Mus musculus, T-lymphocyte, L-687,819 1.3 ng/ml, 48 h), the inhibition at 0.0013 µg/mL was found to be 0%. The inhibition at 0.0029 µg/mL with mouse T lymphocytes (Mus musculus, T-lymphocyte, L-687,819 2.9 ng/ml, 48 h) was found to be 0%. Moreover, in the data set on mouse T lymphocytes (Mus musculus, T-lymphocyte, L-687,819 4.4 ng/ml, 48 h), the inhibition at 0.0044 µg/mL amounted to 15.9%. The inhibition at 0.0066 µg/mL in the data set with mouse T lymphocytes (Mus musculus, T-lymphocyte, L-687,819 6.6 ng/ml, 48 h) worked out at 51.3%. Further, in the data set on mouse T lymphocytes (Mus musculus, T-lymphocyte, L-687,819 10 ng/ml, 48 h, read-out: % Inhibition of T-cell proliferation), the inhibition at 0.01 µg/mL stood at 76.1%. In addition, in the data set on mouse T lymphocytes (Mus musculus, T-lymphocyte, L-687,819 100 ng/ml, 48 h), the inhibition at 0.1 µg/mL was 98.8%. Also, the “Inhibition of proliferation on addition of recombinant human IL2” value in the data set on mouse T lymphocytes (addition of 50 units/ml recombinant human IL2) is reported as “reversed”. For the same compound, the “immunosuppressive activity by the T-cell proliferation assay” value with mouse T lymphocytes is given as “positive immunosuppressive activity; also recorded: positive inhibition of T-cell activation”; in the data set with mouse T lymphocytes (listed as minor component), “shown to possess immunosuppressive activity”. In addition, the Solubility result in “Solubility” is recorded as “Solubility in methanol”.
